Results: US20260137820A1, “TRIFUNCTIONAL COMPOUND AND USE THEREOF” (PEKING UNIVERSITY, priority 2022, published 2026)
*1 amine or outer side, *2 acyl side, *3 side chain or, on linkers, in order; H or OH if unused. Where a SMILES comes first, the peptide text is derived from it. Side-chain parts run from the residue outwards. [ ]: non-standard residue; d: D form. The star is where a group is joined. DOTA = O=C(O)CN1CCN(CC(=O)O)CCN(CC(=O)*)CCN(CC(=O)O)CC1; X1 = O=C([C@@H](Cc1ccc(OS(=O)(=O)F)cc1)N[*:1])[*:2]; 2Nal = N[C@@H](Cc1ccc2ccccc2c1)C(=O)O; dNMeOrn = CN[C@H](CCCN)C(=O)O; 4Amb = NCc1ccc(C(=O)O)cc1

Legend:
Daudi tumor = assay: PET/CT imaging in tumor mouse model with high CXCR4 expression; type: in vivo; details: 7.4-18.5 MBq i.v., 2 hours, p<0.05
Experimental: (§1) All PET/CT scans were carried out on Mediso nanoScan® PET 122S small animal PET/CT.
(§2) A certain number (n=4) of Daudi tumor mice (for the construction method, see the method in PET Imaging of CXCR4 Receptors in Cancer by a New Optimized Ligand, published by Oliver Demmer et al.) were taken and intravenously injected at specified time points with 7.4-18.5 MBq of ^68Ga-pentixafor (as a control, the labeled precursor is readily commercially available, and the structure is specifically disclosed) and ^68Ga-CXCR4-CB-03 molecules (Note: the injection of the control and investigation molecules was separated apart by at least 12 hours until the previous ^68Ga molecule essentially completely decayed and was essentially completely metabolized). Imaging was carried at the time point of 2 hours, and the SUVmax value in tumor was obtained by a software.

AR42J tumor = assay: PET/CT imaging in tumor mouse model with high SSTR2 expression; type: in vivo; details: 7.4-18.5 MBq i.v., 2 hours, p<0.05
Experimental: as §1
as §2, with “AR42J” for “Daudi”, “Combination radionuclide therapy using ^177Lu-and ^90Y-labeled somatostatin analogs,” for “PET Imaging of CXCR4 Receptors in Cancer by a New Optimized Ligand,”, “Marion de Jong” for “Oliver Demmer”, “^68Ga-DOTATATE” for “^68Ga-pentixafor”, “^68Ga-SSTR2-CB-02” for “^68Ga-CXCR4-CB-03”

Structure (SMILES)	drug tumor uptake (SUVmax) compared with ^68Ga-pentixafor (Daudi tumor)	drug tumor uptake (SUVmax) compared with ^68Ga-DOTATATE (AR42J tumor)
CN1C(=O)[C@@H](Cc2ccc(OS(=O)(=O)F)cc2)NC(=O)CNC(=O)[C@H](Cc2ccc3ccccc3c2)NC(=O)[C@H](CCCNC(=N)N)NC(=O)[C@H]1CCCNC(=O)c1ccc(CNC(=O)CN2CCN(CC(=O)O)CCN(CC(=O)O)CCN(CC(=O)O)CC2)cc1 [^68Ga-CXCR4-CB-03, metal not drawn] (cyclo([2Nal]G[X1][dNMeOrn]([4Amb-DOTA])R))	significantly higher	–
C[C@@H](O)[C@H](NC(=O)[C@@H]1CSSC[C@H](NC(=O)[C@@H](Cc2ccccc2)NC(=O)CN2CCN(CC(=O)O)CCN(CC(=O)O)CCN(CC(=O)O)CC2)C(=O)N[C@@H](Cc2ccc(OS(=O)(=O)F)cc2)C(=O)N[C@H](Cc2c[nH]c3ccccc23)C(=O)N[C@@H](CCCCN)C(=O)N[C@@H]([C@@H](C)O)C(=O)N1)C(=O)O [^68Ga-SSTR2-CB-02, metal not drawn]	–	significantly higher
